Publication PMC6453917, “On resin click-chemistry-mediated synthesis of novel enkephalin analogues with potent anti-nociceptive activity” (Scientific Reports, 2019)
Read-outs that look alike come from different tables or passages of the source. Where a SMILES comes first, the peptide text is derived from it. Bridges are numbered along the chain shown (N, C = ends). Triazole bridges read from a SMILES are 1,4-linked. [ ]: non-standard residue; d: D form. dDap(N3) = [N-]=[N+]=NC[C@@H](N)C(=O)O; dPra = C#CC[C@@H](N)C(=O)O

How the values were obtained:
[1] = design: method as in PMID 25755050; conditions: compared with morphine; cited from earlier work
[2] = design: method as in PMID 25755050; conditions: cited from earlier work
DOP = conditions: read-out: IC50 in the MVD assay; DOP agonist activity; cited from earlier work
MOP = MOP agonist activity; read-out: IC50 in the GPI assay; cited from earlier work
human KOP [3] = biological target: T1, human KOP (Homo sapiens, UniProt P41145); assay: 35S-GTPγS coupling assay, KOP; assay type: biochemical; design: Emax: dose or concentration left out as unconfirmed; conditions: for Emax: read-out: KOP EMax (in parentheses)
T1 construct: expressed in transfected cells; host or cells: CHO cells (membrane preparations)

human KOP [4] = biological target: T1, human KOP; assay: Competition radioligand binding vs 3H-diprenorphine, KOP
[5] = design: method as in PMID 29513114; conditions: cited from earlier work
[6] = cited from earlier work
CD-1 male mice [7] = assay: Formalin test; assay type: in vivo; conditions: s.c., 100 nmol, 15 min before formalin
Excerpt: The formalin test involves moderate and continuous pain generated by an injured tissue, and the measured response is the time the animals spend licking the injected paw. […] The early phase is caused predominantly by δ-fiber activation, due to a direct effect on nociceptors, while the late phase appears to be an inflammatory response, involving the unmyelinated C-fibre[44].
CD-1 male mice (Harlan, Italy) weighing 25–30 g were used in all the experiments. Before the experimental sessions, the mice were maintained in colony, housed in cages (7 mice per cage) under standard light/dark cycle (from 7:00 AM to 7:00 PM), temperature (21 ± 1 °C) and relative humidity (60 ± 10%) for at least 1 week. Food and water were available ad libitum. […]
Subcutaneous injection of a dilute solution of formalin (1%, 20 μL/paw) into the mice hind paw evoked nociceptive behavioural responses, such as licking, biting the injected paw or both, which are considered indices of nociception. […] The total time the animal spent licking or biting its paw during the early and late phase of formalin-induced nociception was recorded. […]

CD-1 male mice [8] = assay: Hot plate test (thermal nociception); assay type: in vivo; conditions: i.v., 23 μmol.kg−1, mice
[9] = BBB PAMPA assay (porcine brain lipids)
Plasma stability assay = assay type: in vitro ADME; conditions: human plasma, 37 °C, read-out: degradation half-life (t1/2)
Method: A plasma stability assay was performed by incubation of compounds in human plasma at a chosen initial concentration (i.e. 5 μM) at 37 °C. The aliquots of the incubated plasma samples were taken at T0 (at the beginning) and at T2 (after 4 hours). Collected samples were spiked with cold acetonitrile to precipitate proteins and prevent the compound from further decomposition. The assay was repeated in triplicate. Plasma aliquots were centrifuged and the supernatant collected and analyzed by LC-MS technique. The instrument responses were referenced to the zero time-point sample (as 100%) in order to determine the percentage of compound remaining after incubation at a given time point. The half-life parameter was calculated from linear regression of time course data.
Plasma and working solutions of experimental and control compounds (at appropriate concentrations) were warmed to 37 °C. 99 µL of plasma was dispensed into a pre-labeled 96-well plate (in triplicate per time-point). Then 1 µL of test compound and reference compound were transferred to wells filled by plasma. 200 µL of cold acetonitrile was added immediately into wells marked as the ‘0’ time point to precipitate proteins and prevent compound from biotransformation. Plates were incubated in a thermostatic shaker at 37 °C while shaken at 350 rpm. […] Samples were analyzed using an LC-MS technique.

In the case of Tyr-c^2,4[DLys-Phe-Dab]-CH2CH2NHCONH2, the antinociceptive response [1] is listed as “stronger antinociceptive response than that of morphine” and the enzymatic degradation [2] is listed as “resistant to enzymatic degradation”.

For “cyclo(N^ε,N^β’-carbonyl-D-Lys^2,Dap^5)-enkephalinamide”, the IC50 (DOP) is listed as 0.00065 µM and the IC50 (MOP) is listed as 0.00021 µM.

In the case of `NC(=O)[C@H]1Cn2cc(nn2)C[C@@H](NC(=O)[C@@H](N)Cc2ccc(O)cc2)C(=O)NCC(=O)N[C@@H](Cc2ccccc2)C(=O)N1` [NOVA1, H-Tyr-c[DPra-Gly-Phe-DAza]-NH2 triazole] (H-Y[dPra]GF[dDap(N3)]-NH2; triazole 2-5), the EC50 (human KOP [3]) is reported as over 3.33 µM, the Emax (human KOP [3]) is reported as 56.7 ± 5.4% and the Ki (human KOP [4]) is reported as over 3.33 µM.

For Dmt-c[D-Lys-Phe-p-CF3-Phe-Asp]NH2 [F18], the Classification ([5]; PAMPA BBB permeation class) is given as “Low permeation (Pe<2.0→lowpermeation)” and the “Mean (%) Mass balance” value ([5]; PAMPA) is given as 95.75%.

For `CC1(C)SSC(C)(C)[C@@H](NC(=O)[C@@H](N)Cc2ccc(O)cc2)C(=O)NCC(=O)N[C@@H](Cc2ccccc2)C(=O)N[C@H]1C(=O)O` [DPDPE, (D-Pen^2,D-Pen^5)-Enkephalin], the “antinociception after i.c.v. administration” value ([6]; i.c.v.) is listed as “slightly active until 45 min”, the “antinociception after s.c. administration” value ([6]; s.c.) is listed as “completely inactive” and the “antinociceptive effect, formalin test, early and late phase” value (CD-1 male mice [7]) is listed as “slight but not significant antinociceptive effect”. The “antinociceptive effect (nociceptive threshold), hot plate” value (CD-1 male mice [8]) was “ineffective”.

In the case of `NC(=O)[C@H]1Cc2cn(nn2)C[C@@H](NC(=O)[C@@H](N)Cc2ccc(O)cc2)C(=O)NCC(=O)N[C@@H](Cc2ccccc2)C(=O)N1` [NOVA2, H-Tyr-c[DAza-Gly-Phe-DPra]-NH2 triazole] (H-Y[dDap(N3)]GF[dPra]-NH2; triazole 2-5), the “Mean (%) Mass balance” value ([9]; PAMPA) is reported as 102.22%, the “Pe value relative to negative control theophylline” value ([9]; PAMPA) is reported as “two-fold higher” and the Classification ([9]; PAMPA BBB permeation class) is reported as “Low permeation (Pe<2.0→lowpermeation)”. It also gave an EC50 (human KOP [3]) of over 3.33 µM, an Emax (human KOP [3]) of 68.3 ± 5% and a half-life at 5 μM (Plasma stability assay) of over 4 h. For the same molecule, the Ki (human KOP [4]) was over 3.33 µM.
